Measurements as given in BigSolDB 2.1.

CN[C@@H]1[C@H](O)[C@H](NC)[C@H]2O[C@@]3(O)C(=O)C[C@@H](C)O[C@H]3O[C@@H]2[C@H]1O.Cl.Cl.O.O.O.O.O
solubility (mole fraction)
Conditions	278.15 K	283.15 K	288.15 K	293.15 K	298.15 K	303.15 K	308.15 K	313.15 K	318.15 K
in ethanol	0.00342	0.00412	0.00443	0.00484	0.00545	0.00629	0.00664	0.00738	0.00807
in isopropanol	0.00031	0.0004	0.00051	0.00066	0.00074	0.00086	0.00101	0.00114	0.00131
in methanol	0.00988	0.0138	0.0185	0.0226	0.032	0.0385	0.0439	0.0531	0.0629
in n-propanol	0.00098	0.00125	0.00157	0.00219	0.0027	0.00336	0.00373	0.00447	0.00531
